PMC8750527 (Cancers, 2021)

Key:
[1] = tested on: normal cells (C8-D1A, HDF); test: Proliferation index assay, normal cells; details: 120 h; axitinib 5 µM, etoposide 1 µM
[2] = tested on: barrier formed by BEC (hCMEC/D3); test: In vitro BBB permeability assay (FITC-Dextran), BEC; format: cell-based, human; details: 3-day treatment, nontoxic doses
Description: This assay was conducted as previously described. […] Permeability was measured by the passage of 40 kDa FITC-Dextran through the inserts. Fluorescence intensity measures were normalized to the DMSO control.

[3] = tested on: subcutaneous HD-MB03 tumors; test: Subcutaneous HD-MB03 xenografts; format: in vivo, mouse; details: oral, thrice a week
Description: For subcutaneous xenograft experiments, tumor cells expressing the luciferase (350,000 HDMB-Luc cells and 1.10^6 DAOY-Luc cells) were resuspended in 200 µL of 5 µg/mL Matrigel (Corning Inc., Corning, NY, USA) and injected subcutaneously in the flank of 5-week-old Rj:NMRI-Foxn1 nude (nu/nu) female mice (Janvier Labs, Le Genest-Saint-Isle, France). Saline solution (NaCl 0.9M; 100 µL) containing 30 mg/mL D-Luciferin (Perkin Elmer, Wellesley, MA, USA) was injected intraperitoneally in the animals and the bioluminescence was quantified using an In Vivo Imaging System (Perkin Elmer, Wellesley, MA, USA) according to the manufacturer’s instructions. Tumor volume (V = L × l2 × 0.52) was determined with a caliper and the endpoint was determined as a tumor volume of 1000 mm^3. […] The mice were sacrificed when the tumor reached 1000 mm^3. […] No statistical methods were used to predetermine the sample size of the experiments. Animal facility availability and cost were used to determine sample sizes. Two independent cohorts of five mice per group were used for the tumor growth experiment with HD-MB03 cells and one cohort of five mice per group was used for the experiment with DAOY cells. Animal experiments were carried out in strict accordance with the recommendations in the Guide for the Care and Use of Laboratory Animals. Our experiments were approved by Direction de l’Action Sanitaire et Sociale of the Principality of Monaco and the ethics committee of Centre Scientifique de Monaco.
The growth rate of the tumors generated with HD-MB03 cells was determined using a linear regression method applied to the growth curves between the sizes of 400 mm^3 up to the endpoint using Prism 5 (Graphpad Software Inc., San Diego, CA, USA).
Tumor samples were recovered from the animals and embedded in the OCT compound according to the manufacturer’s protocol (Thermo Fisher Scientific Inc., Waltham, MA, USA). After that, 5 µm thin sections were prepared with a cryostat (Leica Microsystems, Wetzlar, Germany). Incubation was carried out with the following antibodies diluted at 1:1000 in TBS supplemented with 1% horse serum and 1% BSA for 20 min at room temperature: anti-Ki67 (cat. number ab16667, Abcam, Cambridge, UK), anti-CD31 (cat. number 550274, BD Biosciences, Frankton Lake, NJ, USA) or anti-αSMA (cat. number A2547, Merck Millipore, Burlington, MA, USA). The preparations were then washed with TBS–0.025% Triton, incubated with anti-rabbit Alexa488 and anti-mouse Alex-555-coupled secondary antibodies (Cell Signaling Technology, Danvers, MA, USA), washed with TBS–0.025% Triton, and the nuclei were counterstained with Hoechst33342 (Thermo Fisher Scientific, Waltham, MA, USA). Fluorescence images of the cells were taken with a DMI400 inverted microscope equipped with a 40× objective (Leica Microsystemes, Nanterre, France) and a Zyla 5.5 camera (Andor Technologies, Belfast, UK) powered by the Micromanager software. At least one cross-section of nonoverlapping images of each tumor was acquired. All the images were then quantified with the CellProfiler 3.0 software.

[4] = axitinib 50 mg/kg, etoposide 30 mg/kg, combination 25 + 15 mg/kg

## CNC(=O)c1ccccc1Sc1ccc2c(/C=C/c3ccccn3)n[nH]c2c1 [Axitinib, axitinib]
[1]
  proliferation of normal cells: impaired in these conditions, although to a lower extent
[2]
  permeability of the barrier formed by BEC: permeabilized the barrier
[3]
  number of endothelial cells (CD31-positive) and/or pericytes/cancer-associated fibroblasts (αSMA-positive): did not impact
  surface of necrotic areas: increased the surface of necrotic areas
  tumor growth rates (linear regression, growth phase): reduced
[3]; [4]
  median time to reach the endpoint volume (1000 mm^3): 18 days
  range of time to reach the endpoint volume (1000 mm^3): 13 to 63 days
